Reference: paper PMC8794255, “Small molecule inhibitor of Igf2bp1 represses Kras and a pro-oncogenic phenotype in cancer cells” (RNA Biology, 2021)

Legend:
[1] = molecular target: T1, La (Homo sapiens, UniProt P05455); assay: FP counterscreen: La binding to Bcl2 RNA
T1 sequence (P05455 1-408): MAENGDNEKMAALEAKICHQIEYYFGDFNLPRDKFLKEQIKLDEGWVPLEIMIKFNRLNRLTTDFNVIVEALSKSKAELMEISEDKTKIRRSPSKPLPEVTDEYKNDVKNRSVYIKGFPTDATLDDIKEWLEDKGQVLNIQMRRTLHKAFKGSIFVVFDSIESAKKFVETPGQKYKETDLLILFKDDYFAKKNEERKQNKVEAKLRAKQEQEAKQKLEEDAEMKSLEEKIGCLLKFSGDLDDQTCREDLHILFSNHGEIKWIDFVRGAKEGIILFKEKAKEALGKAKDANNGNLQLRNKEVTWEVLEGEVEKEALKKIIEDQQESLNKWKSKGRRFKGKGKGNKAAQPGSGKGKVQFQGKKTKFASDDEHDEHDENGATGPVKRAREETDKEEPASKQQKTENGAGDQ

[2] = molecular target: T2, Igf2bp1 (Homo sapiens, UniProt Q9NZI8); assay: Microscale thermophoresis (MST), full-length Igf2bp1; settings: full-length protein, read-out: KD of compound binding to Igf2bp1
T2 construct: Recombinant full-length Igf2bp1 protein was labelled with RED-tris-NTA dye; made in house
Experimental: (§1) Recombinant full-length Igf2bp1 protein was labelled with RED-tris-NTA dye using a Monolith NT His-Tag Labelling Kit (NanoTemper) while RRM12, KH12 and KH34 di-domain peptides were labelled using the Protein Labelling Kit RED NHS 2nd generation (NanoTemper). Labelled proteins were spun at 15,000 g for 5 min to eliminate aggregates. All samples were 2X labelled protein mix of Igf2bp1 (200 nM) in PBST and were combined (1:1) with serial dilutions of compound or Kras6 RNA in binding buffer (10mMTris pH = 7.5, 100 mM NaCl, 0.1 mM EDTA, 0.06% IPEGAL, 0.02 μg/μL tRNA, 2 mM DTT, 0.1 μg/μL heparin) in final volume of 20 μL, room temperature for 15 min. Samples were then loaded into standard capillaries (NanoTemper) and read in the Monolith NT.115 scanner (NanoTemper) using the red filter with reading conditions of 95% LED power and 40% MST power, 5 sec fluorescence before, 30 sec MST on, 5 sec fluorescence after and 25 sec delay between samples. Results were analysed using the MO Control software (NanoTemper) for curve fitting to KD.

[3] = molecular target: T3, Igf2bp1 RRM12 di-domain (Homo sapiens, UniProt Q9NZI8); assay: MST, Igf2bp1 RRM12 di-domain; settings: read-out: KD of binding to RRM12
T3 construct: Human Igf2bp1 di-domains RRM12 (M1-P188) and KH34 (P387-A574); 6xHis (N, cleaved yes); made in house; host or cells: E. coli BL21(DE3)
Experimental: as §1
The open reading frame of Igf2bps were cloned into the pET-21(d) plasmid (Novagen) between the Nco1 and Xho1 sites, as previously described. […]

[4] = tested on: LKR-M cells overexpressing human Igf2bp1-GFP; assay: Wound healing assay, LKR-M cells expressing human Igf2bp1-GFP; format: cell-based, mouse; settings: 20 μM 7773 vs DMSO
Experimental: Cells were seeded in 96 IncuCyte® ImageLock plates (20X10^3 cells per well) for 24 hours, to a near confluency of 95%, before the addition of increasing concentrations of compound. After a further 24 hours, wells were scratched using the IncuCyte® 96-well WoundMaker Tool, and the cells cultured for an additional 48 hours using the IncuCyte® S3 Live-Cell Analysis System (Essen BioScience). The plate was imaged at increments of 120 minutes for a period of 48 hours, and then analysed for relative wound healing.

[5] = tested on: wild-type luciferase in RKO cells; assay: Control (wild-type) luciferase in RKO cells; format: cell-based; settings: 50 μM 7773
Experimental: The RKO cells were seeded in DMEM with 10% calf serum 24 hrs prior to the transfection. Transfection was done using Lipofectamine 2000 with reporter plasmids and Renilla-luciferase expressing vector (as internal control). After 24 hrs, cells were lysed using passive lysis buffer (Promega catalogue # E1941). The lysates were cleared by centrifugation and its 20 μL volume was mixed with 100 μL of luciferase substrate solution for luminescence recording which was followed by addition of 100 μL of Stop-glo solution (Promega catalogue # E1910) with an additional luminescence reading. Both readings were detected by using GloMax 20/20 Luminometer (Promega), and the final value for each sample was the ratio of their two respective readings. To test the effects of 7773, transfected cells with reporter plasmids were washed with PBS after 24 hrs of transfection and incubated with medium containing 7773.

[6] = tested on: H1299 cells; assay: qPCR of Igf2bp1 target RNAs in H1299 cells; format: cell-based, human
Experimental: Cells were grown for 12 hours in 12 well plates prior to incubation with the compound at different concentrations for an additional 12 or 24 hours. Total RNA was then extracted using EZ-RNA total RNA isolation kit (Biological Industries) and cDNA prepared from the RNA using the First Strand cDNA Synthesis kit (Quanta bio). Real time PCR was performed with Fast SYBR Green Master Mix (Thermo Fisher Scientific), and cDNA expression analysed with the Bio-Rad CFX Manager 3.1.

[7] = tested on: H1299 cells; assay: Cell proliferation assay (Incucyte), H1299; format: cell-based, human
Experimental: ES2, H1299 and HEK293 cells were seeded in a 96 well plate (5X10^3 cells per well) for 24 hours before adding the compound at increasing concentrations. After an additional 24 hours, the plate was incubated in an IncuCyte® S3 Live-Cell Analysis System (Essen BioScience). The wells were filmed for 72 hours, and then analysed for proliferation rate Using IncuCyte® S3 Live-Cell Analysis System (Essen BioScience)

[8] = tested on: H1299 cells; assay: Growth in soft agar, H1299; format: cell-based, human; settings: H1299, 20 μM 7773
Experimental: Cells were grown for 12 hours in 6 well plates prior to incubation with the compound or DMSO for an additional 48 hours, 2000 cells were suspended in 0.3% agar-complete medium and then seeded in triplicates onto a 0.6% agar-complete medium base in a 6 well plate. After one week, the colonies were fed with 0.3% agar-complete medium, and after 2 additional weeks, imaged and quantified.

T2 sequence (Q9NZI8 whole entry): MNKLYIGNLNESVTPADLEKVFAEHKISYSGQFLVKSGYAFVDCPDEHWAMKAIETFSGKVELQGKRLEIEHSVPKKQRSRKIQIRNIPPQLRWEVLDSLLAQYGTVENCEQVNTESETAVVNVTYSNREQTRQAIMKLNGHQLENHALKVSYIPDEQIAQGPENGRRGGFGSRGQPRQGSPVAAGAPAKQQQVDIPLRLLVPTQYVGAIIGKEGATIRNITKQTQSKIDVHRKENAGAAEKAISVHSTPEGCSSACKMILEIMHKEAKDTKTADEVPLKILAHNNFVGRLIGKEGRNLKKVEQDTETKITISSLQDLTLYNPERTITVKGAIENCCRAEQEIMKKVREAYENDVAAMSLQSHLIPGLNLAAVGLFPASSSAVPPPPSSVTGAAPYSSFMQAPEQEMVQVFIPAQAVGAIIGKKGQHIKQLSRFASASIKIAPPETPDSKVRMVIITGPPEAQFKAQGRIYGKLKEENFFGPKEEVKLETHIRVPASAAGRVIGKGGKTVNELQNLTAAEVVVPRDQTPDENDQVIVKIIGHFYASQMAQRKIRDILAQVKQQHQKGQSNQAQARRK
T3 sequence (Q9NZI8 1-188): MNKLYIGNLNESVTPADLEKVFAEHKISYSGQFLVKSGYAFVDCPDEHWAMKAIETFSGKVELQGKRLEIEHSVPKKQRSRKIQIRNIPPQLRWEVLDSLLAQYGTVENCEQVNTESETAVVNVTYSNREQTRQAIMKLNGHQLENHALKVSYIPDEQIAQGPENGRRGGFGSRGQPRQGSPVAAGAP

## O=C(c1ccc(Cn2cnnn2)cc1)N1CCCC(Nc2ccc3c(c2)OCO3)C1 (stereo not drawn) [compound 7773]
[1]
  Effect on control RBP (La) binding to its target (Bcl2 RNA): almost no effect
[1]; control RNA binding protein, read-out: IC50, inhibition of La binding to Bcl2 RNA
  IC50: > 100 µM
[2]
  Kd: 17 µM
[3]
  Kd: 1.5 µM
[4]
  Effect on Igf2bp1-GFP-enhanced wound healing: significantly inhibited
[5]
  Effect on activity of wild-type luciferase: did not affect
[6]; H1299, 20 μM 7773, 12 hours
  Steady state level of Kras mRNA: already reduced
[6]; H1299, 20 μM 7773, 24 hours
  Steady state levels of CD44, Kras, cMyc and SRF RNA: all of the RNAs significantly reduced
[6]; H1299, 24 hours
  Levels of control RNAs that are not targets of Igf2bp1: not significantly affected
[7]; H1299, 20 μM 7773
  Effect on cell proliferation or cytotoxicity: virtually no effect
[7]; H1299, up to 20 μM
  Cell proliferation: remarkably unaffected
[8]
  Ability to form colonies in soft agar: dramatically inhibited
